# The source made the active and inactive calls. The calls are words filed in the database; no cut-off is given here.
# Tests used:
# C127-LT [1] = experiment: Inhibition of HDAC in mouse C127-LT cells assessed as activation of EGFP expression at 10 uM after 24 hrs by fluorescence microscopy; assay type: cell-based
# Histone deacetylase [2] = experiment: Inhibition of HDAC in human HeLa nuclear extract using fluor de lys as substrate after 10 to 15 mins by spectrofluorometry; assay type: protein assay
# Histone deacetylase [3] = experiment: Inhibition of HDAC in human HeLa cells using Boc-Lys(AC)-AMC as substrate after 24 to 48 hrs by spectrofluorometry; assay type: cell-based
# [4] = target: T1, Histone deacetylase (Homo sapiens) (UniProt Q13547+O15379+Q9UBN7+Q92769+Q9UQL6+Q8WUI4+Q9BY41+Q96DB2+P56524+Q9UKV0+Q969S8); experiment: Inhibition of HDAC in human HeLa nuclear extract assessed as accumulation of acetylated histone H3 at 0.1 to 100 uM after 24 hrs by western blot analysis; assay type: protein assay
# [5] = target: T1, Histone deacetylase (Homo sapiens); conditions: at 10 to 25 µM
# Description: Competitive inhibition of HDAC in human HeLa nuclear cells at 10 to 25 uM using Boc-acetyl-lysine-AMC as substrate after 30 mins by Lineweaver-Burk plot analysis
# C127-LT [6] = experiment: Inhibition of HDAC in mouse C127-LT cells assessed as activation of EGFP expression at 1 uM after 24 hrs by fluorescence microscopy; assay type: cell-based
# C127-LT [7] = experiment: Inhibition of HDAC in mouse C127-LT cells assessed as activation of EGFP expression at 200 nM after 24 hrs by fluorescence microscopy; assay type: cell-based
Structure (SMILES),inhibition (C127-LT [1]),other results
COc1cc2c3c(cc4ccccc4c3c1O)NC2=O,inactive,–
COC(=O)[C@]1(O)C[C@@H](OC(=O)/C=C/c2ccc(O)c(O)c2)[C@@H](O)[C@H](OC(=O)/C=C/c2ccc(O)c(O)c2)C1,Active,IC50 (Histone deacetylase [2]): 4.99 µM; IC50 (Histone deacetylase [3]): 7.59 µM; inhibition [4]: Active; inhibition [5]: Active
C=C1C(=O)O[C@@H]2[C@H]3C(=C)[C@@H](O)C[C@H]3C(=C)C[C@H](OC(=O)CC(C)(C)O)[C@@H]12,inactive,–
COc1cc(-c2oc3cc(O)cc(O)c3c(=O)c2O[C@@H]2O[C@H](CO[C@@H]3O[C@@H](C)[C@H](O)[C@@H](O)[C@H]3O)[C@@H](O)[C@H](O)[C@H]2O)ccc1O,Active,–
C=C1[C@@H]2[C@H]3OC(=O)[C@@H](CN[C@@H](Cc4c[nH]c5ccccc45)C(=O)O)[C@@H]3[C@@H](O)CC(=C)[C@@H]2C[C@@H]1O,inactive,–
C=C(CO)C(=O)O[C@H]1CC(=C)[C@@H]2C[C@H](O)C(=C)[C@@H]2[C@H]2OC(=O)C(=C)[C@@H]21,inactive,–
Nc1ccccc1NC(=O)c1ccc(CNC(=O)OCc2cccnc2)cc1,Active,inhibition (C127-LT [6]): Active
C=C1CC[C@@H]2[C@](C)(CCC[C@]2(C)C(=O)O)[C@H]1CCC1=CC(OCCCC)OC1=O (some centres undefined),inactive,–
O=C(/C=C/c1ccc(O)c(O)c1)O[C@@H]1C[C@](O)(C(=O)O)C[C@@H](O)[C@H]1O [CHLOROGENIC ACID],inactive,IC50 (Histone deacetylase [2]): > 200 µM; IC50 (Histone deacetylase [3]): > 200 µM
CC(/C=C/C(=O)NO)=C\[C@@H](C)C(=O)c1ccc(N(C)C)cc1,–,inhibition (C127-LT [7]): Active
C=C1C(=O)O[C@@H]2[C@H]3C(=C)[C@@H](O)C[C@H]3C(=C)C[C@H](OC(=O)C(C)(O)CO)[C@@H]12 (some centres undefined),inactive,–
COc1ccc2cc3[n+](cc2c1OC)CCc1cc2c(cc1-3)OCO2,Active,–
O=C(/C=C/c1ccc(O)c(O)c1)O[C@@H]1C[C@](O)(C(=O)O)C[C@@H](OC(=O)/C=C/c2ccc(O)c(O)c2)[C@H]1O,inactive,IC50 (Histone deacetylase [2]): 143.24 µM; IC50 (Histone deacetylase [3]): > 500 µM
C=C1[C@@H]2[C@H]3OC(=O)[C@@H](CN4CCC[C@H]4C(=O)O)[C@@H]3[C@@H](OC(=O)C(C)(O)CO)CC(=C)[C@@H]2C[C@@H]1O (some centres undefined),inactive,–
O=C(/C=C/c1ccc(O)c(O)c1)O[C@@H]1C[C@@](O)(C(=O)O)C[C@@H](O)[C@@H]1O,inactive,IC50 (Histone deacetylase [2]): 170.4 µM; IC50 (Histone deacetylase [3]): > 200 µM
C=C1[C@@H]2[C@H]3OC(=O)[C@@H](CN[C@H](C(=O)O)C(C)C)[C@@H]3[C@@H](O)CC(=C)[C@@H]2C[C@@H]1O,inactive,–
CC(=O)OCCc1ccc(O)c(O)c1,Active,–
COc1cc2c(cc1OC)[C@@H]1Cc3ccc(O)c(O)c3CN1CC2,Active,–

# From ChEMBL document CHEMBL3792339, “Identification of new quinic acid derivatives as histone deacetylase inhibitors by fluorescence-based cellular assay” (Bioorg Med Chem Lett, 2016)
